The assay relates to HRA.HRII-c/+/Skh hairless pigmented mice. As to the kind of experiment: visual pigmentation score after topical compounds with or without UVB, 13-week protocols. To be noted: HRA/Skh-II mice, four or more weeks. It counts as in vivo. The protocol: Male and female inbred HRA.HRII-c/+/Skh hairless pigmented mice, age-matched (8-16 weeks old), were used in the following in vivo experiments for evaluation of pigmentation induced by piperine and/or UVR.
In one experiment, the compounds used included piperine, THP, CHP, and RCHP, each prepared in DMSO at a 50 mg/ml concentration, and applied to the backs of mice (n=4) twice daily on weekdays for 13 weeks, as shown in FIG. 3. As shown, Group A received treatment with compounds only from week 1-13. Group B was treated with compound from week 1-13, with additional UVB irradiation from weeks 5-13. Group F received UVB alone (no topical treatment) for 9 weeks, corresponding to weeks 5-13. Groups C, D and E were treated as Group B from weeks 1-7. All treatments was suspended for 3 weeks (8-10) and re-started as topical treatment with compounds only (Group C), UVB only (Group D), or topical treatment with UVB (Group E) from weeks 11-13.
Pigmentation was assessed visually by an investigator blinded to the treatment that the animals had received using the following scoring system: 0—no pigmentation; 1—first signs of pigmentation (spots); 2—light brown; 3—medium brown; 4—dark brown; 5—black. Scores obtained at the end of each week (Friday) are shown in FIG. 4 (piperine noted as PIP). […]

With `O=C(CCCCc1ccc2c(c1)OCO2)NC1CCCCC1` [RCHP, 5-(3,4-methylenedioxyphenyl)-2,4-pentanoylcyclohexylamine], the “skin pigmentation in vivo after continuous topical application” value is on record as “stimulate the development of even skin pigmentation”.

For the origin of these results see patent US20080146987A1, “TREATMENT OF A SKIN CONDITION USING A PIPERINE-BASED COMPOSITION IN CONJUNCTION WITH IRRADIATION” (OREGON HEALTH & SCIENCE UNIVERSITY, priority 2006, published 2008).
